Source: patent US20230192617A1, “AZABICYCLIC(THIO)AMIDES AS FUNGICIDAL COMPOUNDS” (Bayer CropScience Aktiengesellschaft, priority 2020, published 2023)

How the values were obtained:
[1] = test system: Colletotrichum lindemuthianum; assay: B-8. Colletotrichum lindemuthianum in vitro cell test; type: cell-based; conditions: 144 h, 20 ppm of active ingredient, 6 days incubation, liquid culture, absorbance, read-out: efficacy (inhibition of fungal growth)
Procedure, shortened: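 Liquid-culture germination/growth test: compounds in ≤1% final DMSO were added to spore-containing medium. Fungal growth was quantified spectrophotometrically after 6 days of incubation and expressed as inhibition versus untreated controls.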

Botrytis cinerea [2] = assay: In vivo preventive test on Botrytis cinerea (grey mould); conditions: 500 ppm of active ingredient, preventive spray on gherkin or cabbage, evaluated 4 to 5 days after inoculation, read-out: efficacy
Procedure, shortened: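 Preventive spray on cabbage or gherkin seedlings, with compound formulated in DMSO/acetone/Tween 80 and water-diluted, preceded spore inoculation by 24 hours. Cabbage was held 4 to 5 days at 20° C., 100% relative humidity; gherkin 4 to 5 days at 17° C., 90% relative humidity.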

[3] = Measurement of Log P values by HPLC on reversed phase columns (EEC directive 79/831 Annex V.A8); type: physicochemical; conditions: reversed phase HPLC column
Procedure, shortened: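 Log P derived from retention on reversed-phase columns (EEC directive 79/831 Annex V.A8), LC-UV, acetonitrile gradient 10% to 95% against water containing 0.1% formic acid, 0.001 M ammonium acetate, or 0.1% phosphoric acid; several values per method separated by "+".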

Sphaerotheca fuliginea = assay: In vivo preventive test on Sphaerotheca fuliginea (powdery mildew on cucurbits); conditions: Podosphaera fuliginea, 192 h; 500 ppm of active ingredient; preventive spray on gherkin; evaluated 8 days after inoculation; read-out: efficacy
Protocol: B-4. in vivo preventive test on Sphaerotheca fuliginea (powdery mildew on cucurbits) [table] The active ingredients were made soluble and homogenized in a mixture of Dimethyl sulfoxide/Acetone/Tween® 80 and then diluted in water to the desired concentration. The young plants of gherkin were treated by spraying the active ingredient prepared as described above. Control plants were treated only with an aqueous solution of Acetone/Dimethyl sulfoxide/Tween® 80. After 24 hours, the plants were contaminated by spraying the leaves with an aqueous suspension of Sphaerotheca fuliginea spores. The contaminated gherkin plants were incubated for 8 days at 20° C. and at 70-80% relative humidity.

Alternaria alternata = Alternaria alternata in vitro cell test; type: cell-based; conditions: 120 h, 20 ppm of active ingredient, liquid culture, 5 days incubation, spectrometric measurement of mycelium growth, read-out: efficacy (inhibition of fungal growth)
Procedure, shortened: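 Spectrometric readout of mycelial growth after 5-day incubation gauged compound effects on spore germination and growth of A. alternata in liquid medium. Compounds were delivered in DMSO at ≤1% final. Absorbance was compared with untreated controls to give inhibition.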

Alternaria brassicae = assay: In vivo preventive test on Alternaria brassicae (leaf spot on radish or cabbage); conditions: 500 ppm of active ingredient, preventive spray on radish or cabbage, evaluated 3 to 4 days after inoculation, read-out: efficacy
Procedure, shortened: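 Protective spray on young radish or cabbage: actives in water diluted from DMSO/acetone/Tween 80, with solvent-only controls. Leaves were challenged after 24 h with a spore suspension, and plants were held at 100% RH, 20 °C for 3 to 4 days.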

Botrytis cinerea [4] = assay: B-11. Botrytis cinerea in vitro cell test; type: cell-based; conditions: 144 h, 20 ppm of active ingredient, 6 days incubation, liquid culture, absorbance, read-out: efficacy (inhibition of fungal growth)
Protocol: (§1) B-11. Botrytis cinerea In Vitro Cell Test [table] Fungicides were solubilized in DMSO and the solution used to prepare the required range of concentrations. The final concentration of DMSO used in the assay was ≤1%. A spore suspension of B. cinerea was prepared and diluted to the desired spore density. Fungicides were evaluated for their ability to inhibit spore germination and mycelium growth in liquid culture assay. The compounds were added in the desired concentration to the culture medium with spores. After 6 days incubation, fungi-toxicity of compounds was determined by spectrometric measurement of mycelium growth. Inhibition of fungal growth was determined by comparing the absorbance values in wells containing the fungicides with the absorbance in control wells without fungicides.

Pyrenophora teres = assay: B-10. Pyrenophora teres in vitro cell test; type: cell-based; conditions: 144 h, 20 ppm of active ingredient, 6 days incubation, liquid culture, absorbance, read-out: efficacy (inhibition of fungal growth)
Protocol: as §1, with “B-10. Pyrenophora teres” for “B-11. Botrytis cinerea”, “P. teres” for “B. cinerea”

[5] = method [a]: LC-UV, acidic range, 0.1% formic acid in water and acetonitrile as eluent

SMILES	inhibition at 20 ppm [1]	pest or weed control at 500 ppm (Botrytis cinerea [2])	chromatographic logP [3, 5]	pest or weed control at 500 ppm (Sphaerotheca fuliginea)	inhibition at 20 ppm (Alternaria alternata)	pest or weed control at 500 ppm (Alternaria brassicae)	inhibition at 20 ppm (Botrytis cinerea [4])	inhibition at 20 ppm (Pyrenophora teres)	chromatographic logP ([3]; method [b]: LC-UV, neutral range, 0.001 molar ammonium acetate solution in water and acetonitrile as eluent)
C[C@H](NC(=O)c1c(Oc2cncc(C(F)(F)F)c2)nnc2ccccc12)c1cccc(C(F)(F)F)c1 (racemic) [I-028]	80 to 89%	90 to 100%	3.57	90 to 100%	–	–	–	–	–
Cc1ccc(C(F)(F)CNC(=O)c2c(Oc3cncc(C(F)(F)F)c3)nnc3ccccc23)c(C)c1 [I-025]	90 to 100%	90 to 100%	3.87	90 to 100%	90 to 100%	90 to 100%	–	–	–
Cc1ccc(CCNC(=O)c2c(Oc3cccc(C(F)(F)F)c3)nnc3cc(C)ccc23)c(C)c1 [I-004, N-[2-(2,4-dimethylphenyl)ethyl]-7-methyl-3-[3-(trifluoro-methyl)phenoxy]cinnoline-4-carboxamide]	90 to 100%	90 to 100%	4.51	90 to 100%	90 to 100%	90 to 100%	–	–	–
Cc1ccc(C(F)(F)CNC(=O)c2c(Oc3cccc(C(F)(F)F)c3)nnc3c2CCOCC3)c(C)c1 [I-114, N-[2-(2,4-dimethylphenyl)-2,2-difluoro-ethyl]-3-[3-(trifluoro-methyl)phenoxy]-5,6,8,9-tetrahydrooxepino[4,5-c]pyridazine-4-carboxamide]	90 to 100%	90 to 100%	3.58	90 to 100%	90 to 100%	70 to 79%	–	–	–
COCc1ccc(C(F)(F)CNC(=O)c2c(Oc3cccc(C(F)(F)F)c3)nnc3ccccc23)c(Cl)c1 [I-074]	90 to 100%	90 to 100%	4.12	–	90 to 100%	90 to 100%	90 to 100%	90 to 100%	–
O=C(NCC(F)(F)c1ccc(Br)cc1Cl)c1c(Oc2cccc(C(F)(F)F)c2)nnc2ccccc12 [I-021]	90 to 100%	90 to 100%	4.58	90 to 100%	90 to 100%	90 to 100%	–	–	–
O=C(NCC(F)(F)c1ccc(Br)cc1Cl)c1c(Oc2cccc(C(F)F)c2)nnc2ccccc12 [I-035]	90 to 100%	90 to 100%	4.14	70 to 79%	90 to 100%	90 to 100%	–	–	–
Cc1cccc2c1OCC[C@@H]2NC(=O)c1c(Oc2cccc(C(F)(F)F)c2)nnc2ccccc12 (racemic) [I-082]	90 to 100%	90 to 100%	4.07	–	90 to 100%	90 to 100%	90 to 100%	90 to 100%	–
Cc1ccc(C(F)(F)CNC(=S)c2c(Oc3cccc(C(F)(F)F)c3)cnc3ccccc23)c(C)c1 [I-159]	70 to 79%	–	5.17	90 to 100%	–	–	–	–	–
COc1ccc2nnc(Oc3cccc(C(F)(F)F)c3)c(C(=O)NCCc3ccc(C)cc3C)c2c1 [I-010]	–	90 to 100%	4.29	90 to 100%	90 to 100%	80 to 89%	–	–	–
Cc1ccc(C(F)(F)CNC(=O)c2c(Oc3cccc(C(F)(F)F)c3)nnc3ccccc23)c(C)c1 [I-008]	80 to 89%	90 to 100%	4.27	90 to 100%	90 to 100%	80 to 89%	–	–	4.22
